Measured values from patent US20060063766A1, “Use of aryl- and heteroaryl-substituted tetrahydroisoquinolines to block reuptake of norepinephrine, dopamine, and serotonin” (priority 2004, published 2006).
pKi: −log10 of the molar value. Structures can show the parent of a compound that is named as a salt.

Columns and labels:
DAT = biological target: T1, DAT (Homo sapiens, UniProt Q01959); assay: biochemical; assay type: binding; details: for inhibition at 0.1 µM: read-out: % inhibition at 100 nM concentration of test compound, DAT
T1 construct: cDNAs containing the complete coding regions of each transporter were amplified by PCR from human brain libraries; expressed in transfected cells; host or cells: HEK293E
T1 sequence (Q01959 whole entry): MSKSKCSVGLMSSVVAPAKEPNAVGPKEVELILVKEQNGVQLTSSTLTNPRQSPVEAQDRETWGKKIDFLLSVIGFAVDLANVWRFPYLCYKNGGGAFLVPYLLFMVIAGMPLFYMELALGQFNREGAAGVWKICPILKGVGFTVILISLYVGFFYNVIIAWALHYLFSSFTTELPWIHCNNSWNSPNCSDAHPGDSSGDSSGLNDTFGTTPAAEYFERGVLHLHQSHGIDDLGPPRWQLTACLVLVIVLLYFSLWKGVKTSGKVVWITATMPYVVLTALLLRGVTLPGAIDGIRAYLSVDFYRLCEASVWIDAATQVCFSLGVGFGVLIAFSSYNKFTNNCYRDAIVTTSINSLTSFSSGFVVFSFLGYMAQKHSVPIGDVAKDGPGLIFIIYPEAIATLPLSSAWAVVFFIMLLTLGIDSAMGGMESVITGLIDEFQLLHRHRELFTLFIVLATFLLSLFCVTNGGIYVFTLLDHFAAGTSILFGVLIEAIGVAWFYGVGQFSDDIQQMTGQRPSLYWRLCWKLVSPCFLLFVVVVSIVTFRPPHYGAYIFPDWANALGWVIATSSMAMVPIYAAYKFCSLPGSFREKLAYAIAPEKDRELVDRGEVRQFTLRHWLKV

SERT = SERT (Homo sapiens, UniProt P31645); assay: biochemical; details: for inhibition at 0.1 µM: read-out: % inhibition at 100 nM concentration of test compound, SERT
SERT, sequence (P31645 whole entry): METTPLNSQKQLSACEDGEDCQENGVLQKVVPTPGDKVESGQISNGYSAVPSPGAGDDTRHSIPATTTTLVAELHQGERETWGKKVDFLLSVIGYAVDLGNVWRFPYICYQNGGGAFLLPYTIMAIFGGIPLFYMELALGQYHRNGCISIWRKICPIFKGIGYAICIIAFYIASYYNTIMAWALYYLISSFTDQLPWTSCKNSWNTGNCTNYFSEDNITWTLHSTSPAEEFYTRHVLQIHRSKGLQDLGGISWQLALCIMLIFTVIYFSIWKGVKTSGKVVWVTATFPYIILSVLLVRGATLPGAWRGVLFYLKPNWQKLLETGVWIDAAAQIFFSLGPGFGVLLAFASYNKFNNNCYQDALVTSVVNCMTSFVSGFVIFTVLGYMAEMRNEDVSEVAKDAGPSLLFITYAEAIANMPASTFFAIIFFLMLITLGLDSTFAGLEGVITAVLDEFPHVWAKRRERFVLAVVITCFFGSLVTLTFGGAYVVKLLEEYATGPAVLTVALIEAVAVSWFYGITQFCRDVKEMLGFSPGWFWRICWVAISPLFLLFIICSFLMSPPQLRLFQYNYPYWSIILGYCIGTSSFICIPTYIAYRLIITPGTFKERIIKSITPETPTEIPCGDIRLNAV

| melting point [°C] | SMILES | other results |
| --- | --- | --- |
| 123 to 125 | CN(C)Cc1ccc2c(c1)CN(C)CC2c1ccc2sccc2c1 (racemic) (as salt: fumarate) |  |
| 99 to 102 | CN1Cc2cc(-c3cccnn3)ccc2C(c2cc3ccccc3s2)C1 (stereo not shown) (as salt: maleate) |  |
| 94 to 97 | CN1Cc2cc(-c3cccnn3)ccc2C(c2cccc3sccc23)C1 (racemic) (as salt: maleate) |  |
| 228 to 230 | CN1Cc2ccccc2C(c2cccc3ccsc23)C1 (racemic) (as salt: salt) |  |
| 214 to 216 | CN1Cc2ccccc2C(c2ccc3sccc3c2O)C1 (stereo not drawn) (as salt: fumarate) [Example 88 (−)] |  |
| 158 to 159 | CCN1Cc2ccccc2C(c2ccc3sccc3c2O)C1 (stereo not drawn) (as salt: fumarate) [Example 89 (+)] |  |
| 179 to 181 | CC1c2ccccc2C(c2ccc3sccc3c2)CN1C (racemic) (as salt: fumarate) |  |
| 98 to 99 | COc1c(C2CN(C)Cc3ccccc32)ccc2ccsc12 (stereo not shown) (as salt: fumarate) |  |
| 197 to 199 | COc1cccc2c1CN(C)CC2c1ccc2sccc2c1 (racemic) (as salt: fumarate) |  |
| 91 to 92 | CCN1Cc2ccccc2C(c2ccc3sccc3c2OC)C1 (stereo not shown) (as salt: fumarate) |  |
| 155 to 157 | CCN1Cc2ccccc2C(c2ccc3sccc3c2O)C1 (stereo not drawn) (as salt: fumarate) [Example 89 (−)] |  |
| 167 to 169 | CN1Cc2ccccc2C(c2ccc3[nH]ncc3c2)C1 (stereo not shown) |  |
| 210 to 214 | Cc1cccc2c1CN(C)CC2c1ccc2ccccc2c1 (stereo not shown) (as salt: hydrochloride) |  |
| 94 to 98 | CN1Cc2ccccc2C(c2ccc3c(Cl)c[nH]c3c2)C1 (racemic) (as salt: maleate) |  |
| 91 to 94 | CN1Cc2cc(C#N)ccc2C(c2cc3ccccc3s2)C1 (stereo not drawn) (as salt: maleate) [Example 79 (+)] |  |
| 112 to 114 | CN1Cc2cc(C#N)ccc2C(c2ccc3sccc3c2)C1 (stereo not shown) (as salt: fumarate) |  |
| 184 to 187 | CN1Cc2ccccc2C(C2=Cc3ccccc3C2)C1 (stereo not shown) (as salt: maleate) |  |
| 213 to 215 | CN1Cc2ccccc2C(c2ccc3sccc3c2O)C1 (stereo not drawn) (as salt: fumarate) [Example 88 (+)] |  |
| 80 to 84 | CN1Cc2cc(C#N)ccc2C(c2cc3ccccc3s2)C1 (stereo not drawn) (as salt: maleate) [Example 79 (−)] |  |

Second part, the compound before the results:

| SMILES | melting point [°C] | other results |
| --- | --- | --- |
| Cc1noc(C)c1-c1ccc2c(c1)CN(C)CC2c1ccc2ccccc2c1 (racemic) [Example 142, (±)-7-(3,5-dimethyl-isoxazol-4-yl)-2-methyl-4-napthalen-2-yl-1,2,3,4-tetrahydroisoquinoline, maleate salt] |  | pKi (DAT): 6.98; pKi (SERT): 8.28 |
| COc1cccc2cc(C3CN(C)Cc4ccccc43)oc12 (single isomer, unassigned) [Example 11] |  | pKi (DAT): < 6.52; pKi (SERT): 7.57 |
| CN1Cc2ccccc2C(c2ccc3sncc3c2)C1.O=C(O)/C=C\C(=O)O (stereo not drawn) [Example 135 (−)-enantiomer] | 127 to 129 |  |
| CN1Cc2cc(-c3cncnc3)ccc2C(c2cc3ccccc3s2)C1 (racemic) [Example 73, (±)-4-(benzo[b]thiophen-2-yl)-2-methyl-7-(pyrimidin-5-yl)-1,2,3,4-tetrahydroisoquinoline] |  | inhibition at 0.1 µM (DAT): 39%; inhibition at 0.1 µM (SERT): 93% |
| Cc1csc(C2CN(C)Cc3ccccc32)c1 (racemic) [4-methyl-thiophen-2-yl, reference compound] |  | pKi (DAT): 5.65; pKi (SERT): 5.50 |
| CN1Cc2ccccc2C(c2nc3ccccc3s2)C1.O=C(O)/C=C\C(=O)O (racemic) | 165 to 170 |  |
| CN1Cc2cc(N3CCCC3)ccc2C(c2cc3ccccc3s2)C1 (racemic) (as salt: maleate) | 105 to 108 |  |
| CN1Cc2ccccc2C(c2cc(Cl)c3[nH]ncc3c2)C1 (single isomer, unassigned; (-)) [Example 125, (−)-4-(7-chloro-1H-indazol-5-yl)-2-methyl-1,2,3,4-tetrahydoisoquinoline, maleate salt] |  | pKi (DAT): 7.94; pKi (SERT): 7.67 |
| CN1Cc2ccccc2C(c2ccc3cn[nH]c3c2)C1.O=C(O)/C=C/C(=O)O (stereo not shown) | 110 to 117 |  |
| CN1Cc2ccccc2C(c2ccc3c(cnn3Cc3cccc(C#N)c3)c2)C1.O=C(O)/C=C\C(=O)O (stereo not shown) | 83 to 88 |  |
| CN1Cc2cc(CN3CCOCC3)ccc2C(c2cc3ccccc3s2)C1 (single isomer, unassigned) (as salt: maleate) | 80 to 82 |  |
| CN1Cc2ccccc2C(c2ccc3[nH]ncc3c2)C1.O=C(O)/C=C/C(=O)O (stereo not shown) | 83 to 88 |  |
| Cc1cccc2c1C(c1ccc3ccccc3c1)CN(C)C2 (stereo not shown) [Example 56, 2,5-dimethyl-4-(naphthalen-2-yl)-1,2,3,4-tetrahydroisoquinoline] |  | pKi (SERT): 8.47 |
| COc1c(C2CN(C)Cc3ccccc32)ccc2sccc12 (single isomer, unassigned) [Example 82] |  | pKi (DAT): < 6.00; pKi (SERT): 8.37 |
| Cc1noc(C)c1-c1ccc2c(c1)CN(C)CC2c1cc2ccccc2s1 (racemic) (as salt: maleate) | 92 to 95 |  |
| CN1Cc2cc(N3CCOCC3)ccc2C(c2cccc3sccc23)C1 (racemic) (as salt: maleate) | 103 to 107 |  |
| CN1Cc2cc(-c3cccnn3)ccc2C(c2ccc3sccc3c2)C1 (single isomer, unassigned; (+)) (as salt: fumarate) [Example 97, (+)-4-benzo[b]thiophen-5-yl-2-methyl-7-pyridazin-3-yl-1,2,3,4-tetrahydroisoquinoline] | 122 to 124 |  |
| CN1Cc2cc(-c3cnccn3)ccc2C(c2cc3ccccc3s2)C1 (racemic) (as salt: maleate) [Example 71, (±)-4-(benzo[b]thiophen-2-yl)-2-methyl-7-(pyrazin-2-yl)-1,2,3,4-tetrahydroisoquinoline] | 102 to 105 |  |
| CN1Cc2ccccc2C(c2ccc3c(ccn3Cc3ccccc3)c2)C1 (racemic) (as salt: maleate) | 81 to 85 |  |

| SMILES | melting point [°C] | other results |
| --- | --- | --- |
| CN1Cc2ccccc2C(c2nc3ccccc3o2)C1.O=C(O)/C=C\C(=O)O (racemic) | 135 to 140 |  |
| CCN1Cc2ccccc2C(c2ccc3cn[nH]c3c2)C1 (single isomer, unassigned; (+)) [Example 130, (+)-4-(1H-Indazol-6-yl)-2-ethyl-1,2,3,4-tetrahydroisoquinoline, maleate salt] |  | pKi (DAT): 6.98; pKi (SERT): 7.65 |
| CN1Cc2cc(-c3ccc(N(C)C)nn3)ccc2C(c2ccc3sccc3c2)C1 (stereo not shown) (as salt: fumarate) | 116 to 119 |  |
| CN1Cc2ccccc2C(c2cccs2)C1 (racemic) [thiophen-2-yl, reference compound] |  | pKi (DAT): 5.22; pKi (SERT): 5.61 |
| CN1Cc2cc(-c3cccnn3)ccc2C(c2ccc3ccccc3c2)C1 (single isomer, unassigned; (+)) (as salt: maleate) [Example 137, (+)-2-methyl-4-napthalen-2-yl-7-pyridazin-3-yl-1,2,3,4-tetrahydroisoquinoline, maleate salt] | 86 to 88 |  |
| CN1Cc2cc(N3CCOCC3)ccc2C(c2cc3ccccc3s2)C1 (stereo not shown) (as salt: maleate) | 142 to 145 |  |
| COc1c(C2CN(C)Cc3ccccc32)ccc2sccc12 (stereo not drawn) (as salt: fumarate) [82 (+)] | 97 to 99 |  |
| COc1c(O)ccc2c1CN(C)CC2c1ccc2ccccc2c1.O=C(O)/C=C\C(=O)O (stereo not shown) | 85 to 90 |  |
| CN1Cc2c(cccc2N2CCOCC2)C(c2ccc3sccc3c2)C1.O=C(O)/C=C/C(=O)O (racemic) | 148 to 153 |  |
| CN1Cc2ccccc2C(c2cc(Cl)c3[nH]ncc3c2)C1 (single isomer, unassigned; (-)) (as salt: maleate) [Example 125, (−)-4-(7-chloro-1H-indazol-5-yl)-2-methyl-1,2,3,4-tetrahydoisoquinoline, maleate salt] | 104 to 110 |  |
| Cc1noc(C)c1C1CN(C)Cc2ccccc21 (racemic) [4-(3,5-dimethyl-isoxazol-4-yl, reference compound] |  | pKi (DAT): 3.89; pKi (SERT): 5.85 |
| CN1Cc2cc(-c3ncccn3)ccc2C(c2cc3ccccc3s2)C1 (racemic) (as salt: maleate) | 103 to 106 |  |
| CN1Cc2cc(-c3cnccn3)ccc2C(c2cc3ccccc3s2)C1 (racemic) [Example 71, (±)-4-(benzo[b]thiophen-2-yl)-2-methyl-7-(pyrazin-2-yl)-1,2,3,4-tetrahydroisoquinoline] |  | inhibition at 0.1 µM (DAT): 33%; inhibition at 0.1 µM (SERT): 91% |
| Cc1noc(C)c1-c1ccc2c(c1)CN(C)CC2c1ccc2ccccc2c1 (racemic) (as salt: maleate) [Example 142, (±)-7-(3,5-dimethyl-isoxazol-4-yl)-2-methyl-4-napthalen-2-yl-1,2,3,4-tetrahydroisoquinoline, maleate salt] | 88 to 90 |  |
| COc1c(-c2cccnn2)ccc2c1CN(C)CC2c1ccc2ccccc2c1.O=C(O)/C=C/C(=O)O (racemic) | 182 to 186 |  |
| CN1Cc2cc(-c3ncccn3)ccc2C(c2ccc3ccccc3c2)C1.O=C(O)/C=C\C(=O)O (stereo not shown) [Example 140] | 84 to 85 |  |
| CN1Cc2cc(-c3ncccn3)ccc2C(c2ccc3ccccc3c2)C1.O=C(O)/C=C\C(=O)O (stereo not drawn) [Example 140 (−)-enantiomer] | 86 to 88 |  |
| CN1Cc2cc(-c3cncnc3)ccc2C(c2cc3ccccc3s2)C1 (racemic) (as salt: maleate) [Example 73, (±)-4-(benzo[b]thiophen-2-yl)-2-methyl-7-(pyrimidin-5-yl)-1,2,3,4-tetrahydroisoquinoline] | 103 to 107 |  |
| COc1c(C2CN(C)Cc3ccccc32)ccc2sccc12 (stereo not drawn) (as salt: fumarate) [Example 82 (−)] | 94 to 96 |  |
